Columns and labels:
Format in all cases: biochemical
human FLT4 = target: T1, human FLT4 (Homo sapiens, UniProt P35916); assay: FLT4 kinase assay (DELFIA enzyme inhibition); details: read-out: FLT4 IC50
T1 construct: a construct expressing the human FLT4 (789-1207) with an amino terminal GST tag; host or cells: Sf9 insect cells (baculovirus)
Outline: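 GST-tagged human FLT4 (789-1207) from Sf9 cells phosphorylates a biotinylated MET (Tyr1253)-derived peptide for 30 min at room temperature, stopped with EDTA. Phosphopeptide is captured on Neutravidin and detected with Eu-labelled anti-phosphotyrosine antibody by time-resolved fluorescence; IC50 from % inhibition curves.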

human FLT3 = target: T2, human FLT3 (Homo sapiens, UniProt P36888); assay: FLT3 kinase assay (DELFIA enzyme inhibition)
T2 construct: a construct expressing the human FLT3 (564-993) with an amino terminal GST tag; host or cells: Sf9 insect cells (baculovirus)
T2 sequence (P36888 564-993): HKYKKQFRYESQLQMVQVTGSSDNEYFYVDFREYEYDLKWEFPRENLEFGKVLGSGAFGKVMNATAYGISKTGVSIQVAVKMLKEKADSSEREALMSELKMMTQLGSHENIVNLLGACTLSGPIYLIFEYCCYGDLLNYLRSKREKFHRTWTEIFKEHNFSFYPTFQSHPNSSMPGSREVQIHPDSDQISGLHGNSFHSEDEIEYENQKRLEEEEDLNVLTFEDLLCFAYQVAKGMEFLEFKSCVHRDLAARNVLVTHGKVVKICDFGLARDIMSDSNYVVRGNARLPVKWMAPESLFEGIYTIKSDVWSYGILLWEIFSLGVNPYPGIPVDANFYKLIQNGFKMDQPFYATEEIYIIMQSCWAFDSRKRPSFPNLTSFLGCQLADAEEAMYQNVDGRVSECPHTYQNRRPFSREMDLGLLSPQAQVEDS
Experimental: A GST-kinase fusion protein of 70 KDa was produced using sf9 baculovirus expression system, with a construct expressing the human FLT3 (564-993) with an amino terminal GST tag. The protein was purified by one-step affinity chromatography using glutathione-agarose.
FLT3 enzyme activity is determined using a Dissociation Enhanced Lanthanide Fluorescent Immunoassay (DELFIA) with a peptide substrate derived from the Gastrin Precursor (Tyr 87) peptide […] with a core sequence: EAYGW.
The amount of phosphorylated peptide produced is detected by means of a phospho-Tyrosine specific Europium-labelled antibody using Time-Resolved Fluorescence at Excitation 360-35 nm and Emission 620-35 nm.
Assay reactions are set up in a 25 uL final volume on a 96 well plate. […] The reaction is allowed to proceed for 30 minutes at room temperature before stopping with 100 μL Stop solution comprising of 100 mM EDTA, 1×BSA blocker in TBS (Perbio) and 0.05% Surfact-Amps20 (Perbio).
The stopped reaction is transferred to a black 96-well Neutravidin-coated plate (Perbio) and incubated for 30 minutes to capture the biotinylated peptide substrate. After washing wells 3 times with 200 uL TBS/T buffer, Anti-Phospho-Tyr-100 antibody labelled with Eu—N1 (Perkin Elmer AD0159) is added to all wells for 60 minutes at room temperature. After a repeat washing step, DELFIA Enhancement solution (Perkin Elmer) is added to all wells for 5 minutes and the fluorescence measured on a plate reader Analyst HT (Molecular Devices).
The % inhibition of the activity is calculated and plotted in order to determine the concentration of test compound required to inhibit 50% of the enzyme activity (IC50).

human Aurora A = target: T3, human Aurora A (Homo sapiens, UniProt O14965); assay: Aurora A kinase assay (DELFIA enzyme inhibition); details: read-out: Aurora A IC50
T3 construct: Histidine tag (N); host or cells: Sf9 insect cells (baculovirus)
T3 sequence (O14965 1-403): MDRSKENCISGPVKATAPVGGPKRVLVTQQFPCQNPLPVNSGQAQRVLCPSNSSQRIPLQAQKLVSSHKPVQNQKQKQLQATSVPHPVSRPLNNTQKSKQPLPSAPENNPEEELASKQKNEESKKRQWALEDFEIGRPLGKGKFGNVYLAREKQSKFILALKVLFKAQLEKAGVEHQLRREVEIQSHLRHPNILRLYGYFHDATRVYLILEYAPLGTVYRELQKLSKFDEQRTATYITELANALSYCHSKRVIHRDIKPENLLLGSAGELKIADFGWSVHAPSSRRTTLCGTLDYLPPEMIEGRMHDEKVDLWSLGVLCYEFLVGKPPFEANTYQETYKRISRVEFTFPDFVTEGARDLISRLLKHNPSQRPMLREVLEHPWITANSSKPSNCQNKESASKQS
Outline: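 DELFIA read-out (time-resolved Eu fluorescence, 620 nm emission) after Neutravidin capture of biotinylated peptide substrate and antibody detection. Reaction: Ni-agarose-purified Aurora A, 30 min at room temperature, stopped with 100 mM EDTA.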

T1 sequence (P35916 789-1207): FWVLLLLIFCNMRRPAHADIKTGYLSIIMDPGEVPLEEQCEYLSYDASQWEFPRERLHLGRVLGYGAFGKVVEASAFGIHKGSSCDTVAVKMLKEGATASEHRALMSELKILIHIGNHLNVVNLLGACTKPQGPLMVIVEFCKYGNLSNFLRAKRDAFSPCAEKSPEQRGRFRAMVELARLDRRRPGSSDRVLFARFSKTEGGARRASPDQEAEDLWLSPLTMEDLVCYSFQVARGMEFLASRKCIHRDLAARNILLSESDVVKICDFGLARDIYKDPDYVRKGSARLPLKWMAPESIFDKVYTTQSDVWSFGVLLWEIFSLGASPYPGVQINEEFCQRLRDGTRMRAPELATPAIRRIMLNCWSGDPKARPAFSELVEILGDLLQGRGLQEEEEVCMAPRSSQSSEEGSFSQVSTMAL

Compound	IC50 (human FLT4) [µM]	IC50 (human FLT3) [µM]	IC50 (human Aurora A) [µM]
NC(=O)c1nc(-c2c(F)cccc2F)oc1Nc1ccc(-n2cnnn2)cc1 [Example Q-31, 5-(4-(1H-tetrazol-1-yl)phenylamino)-2-(2,6-difluorophenyl)oxazole-4-carboxamide]	< 10	< 10	< 10
NC(=O)c1nc(-c2ccccc2F)oc1-c1ccc(N2CCNCC2)cc1 [Example G-4, 2-(2-fluorophenyl)-5-(4-(piperazin-1-yl)phenyl)oxazole-4-carboxamide]	< 10	< 10	< 10
NCc1ccc(-c2oc(-c3c(F)cccc3F)nc2C(N)=O)cc1 [Example F-16, 5-(4-(aminomethyl)phenyl)-2-(2,6-difluorophenyl)oxazole-4-carboxamide]	< 10	< 100	< 10
NCC1CN(C(=O)c2ccc(Nc3oc(-c4c(F)cccc4F)nc3C(N)=O)cc2)CCO1 (stereo not drawn) [Example U-23, 5-(4-(2-(aminomethyl)morpholine-4-carbonyl)phenylamino)-2-(2,6-difluorophenyl) oxazole-4-carboxamide]	< 10	< 10	< 10
NC(=O)c1nc(-c2c(F)cccc2F)oc1Nc1ccc(C(=O)N2CCCC(O)C2)cc1 (stereo not drawn) [Example U-15, 2-(2,6-difluorophenyl)-5-(4-(3-hydroxypiperidine-1-carbonyl)phenylamino)oxazole-4-carboxamide]	< 10	< 10	< 10
NC(=O)c1nc(-c2c[nH]c3ccccc23)oc1-c1cccs1 [Example E-4, 2-(1H-indol-3-yl)-5-(thiophen-2-yl)oxazole-4-carboxamide]	< 10	< 100	< 100
NC(=O)c1nc(-c2c(F)cccc2F)oc1-c1ccc(CN2CCNCC2)cc1 [Example G-1, 2-(2,6-difluorophenyl)-5-(4-(piperazin-1-ylmethyl)phenyl)oxazole-4-carboxamide]	< 10	< 100	< 10
NC(=O)c1nc(-c2c(F)cccc2F)oc1Nc1ccc(-n2ccnc2)cc1 [Example Q-24, 5-(4-(1H-imidazol-1-yl)phenylamino)-2-(2,6-difluorophenyl)oxazole-4-carboxamide]	< 10	< 10	< 10
CN(C)CCOc1ccc(-c2oc(-c3c(F)cccc3F)nc2C(N)=O)cc1 [Example F-15, 2-(2,6-difluorophenyl)-5-(4-(2-(dimethylamino)ethoxy)phenyl)oxazole-4-carboxamide]	< 10	< 10	< 10
NC(=O)c1nc(-c2c(F)cccc2F)oc1Nc1ccc(C(=O)O)cc1 [Example U-1, 4-(4-carbamoyl-2-(2,6-difluorophenyl)oxazol-5-ylamino)benzoic acid]	< 10	< 10	< 10
NC(=O)c1nc(-c2c(F)cccc2F)oc1Nc1ccc(N2CCCCC2)cc1 [Example Q-13, 2-(2,6-difluorophenyl)-5-(4-(piperidin-1-yl)phenylamino)oxazole-4-carboxamide]	< 10	< 10	< 100
COc1ccc(-c2oc(-c3c[nH]c4ccccc34)nc2C(N)=O)cc1 [Example E-3, 2-(1H-indol-3-yl)-5-(4-methoxyphenyl)oxazole-4-carboxamide]	< 10	< 100	< 100
CN1CCC(NC(=O)c2ccc(Nc3oc(-c4c(F)cccc4F)nc3C(N)=O)cc2)CC1 [Example U-18, 5-(4-((1-methylpiperidin-4-yl)carbamoyl)phenylamino)-2-(2,6-difluorophenyl) oxazole-4-carboxamide]	< 10	< 10	< 10
NC(=O)c1nc(-c2c(F)cccc2F)oc1-c1ccc(N)cc1 [Example F-22, 5-(4-aminophenyl)-2-(2,6-difluorophenyl)oxazole-4-carboxamide]	< 10	< 10	< 10
NC(=O)c1nc(-c2c(F)cccc2F)oc1Nc1ccc(C(=O)NCCO)cc1 [Example U-16, 5-(4-((2-hydroxyethyl)carbamoyl)phenylamino)-2-(2,6-difluorophenyl)oxazole-4-carboxamide]	< 10	< 10	< 10
CNC(=O)N1CCN(c2ccc(-c3oc(-c4c(F)cccc4F)nc3C(N)=O)cn2)CC1 [Example J-2, 4-(5-(4-carbamoyl-2-(2,6-difluorophenyl)oxazol-5-yl)pyridin-2-yl)-N-methylpiperazine-1-carboxamide]	< 10	< 10	< 10
CN(CCO)CCOc1ccc(-c2oc(-c3c(F)cccc3F)nc2C(N)=O)cc1 [Example S-8, 2-(2,6-difluorophenyl)-5-(4-(2-((2-hydroxyethyl)(methyl)amino)ethoxy)phenyl)oxazole-4-carboxamide]	< 10	< 10	< 10
NC(=O)c1nc(-c2c(F)cccc2F)oc1-c1ccc(OCCCN2CCOCC2)cc1 [Example S-13, 2-(2,6-difluorophenyl)-5-(4-(3-morpholinopropoxy)phenyl)oxazole-4-carboxamide]	< 10	< 10	< 10
NC(=O)c1nc(-c2c(F)cccc2F)oc1Nc1ccc(C(=O)NCC2CN(Cc3ccccc3)CCO2)cc1 (stereo not drawn) [Example U-5, 5-(4-(((4-benzylmorpholin-2-yl)methyl)carbamoyl)phenylamino)-2-(2,6-difluorophenyl)oxazole-4-carboxamide]	< 10	< 10	< 10
CNS(=O)(=O)c1ccc(Nc2oc(-c3c(F)cccc3F)nc2C(N)=O)cc1 [Example Q-27, 2-(2,6-difluorophenyl)-5-(4-(N′-methylsulfonamide)phenylamino)oxazole-4-carboxamide]	< 10	< 10	< 10
NC(=O)c1nc(-c2c(F)cccc2F)oc1Nc1ccc(C(=O)N2CCOCC2CO)cc1 (stereo not drawn) [Example U-19, 2-(2,6-difluorophenyl)-5-(4-(3-(hydroxymethyl)morpholine-4-carbonyl)phenylamino)oxazole-4-carboxamide]	< 10	< 10	< 10
CN1CCN(CCOc2ccc(-c3oc(-c4c(F)cccc4F)nc3C(N)=O)cc2)CC1 [Example S-1, 2-(2,6-difluorophenyl)-5-(4-(2-(4-methylpiperazin-1-yl)ethoxy)phenyl)oxazole-4-carboxamide]	< 10	< 100	< 10
NC(=O)c1nc(-c2c(F)cccc2F)oc1Nc1ccc(NC(=O)C2CCCNC2)cc1 (stereo not drawn) [Example V-4, N-(4-(4-carbamoyl-2-(2,6-difluorophenyl)oxazol-5-ylamino)phenyl)piperidine-3-carboxamide]	< 10	< 10	< 10
NC(=O)c1nc(-c2c(F)cccc2F)oc1Nc1ccc(N2CCCNCC2)cc1 [Example Q-15, 5-(4-(1,4-diazepan-1-yl)phenylamino)-2-(2,6-difluorophenyl)oxazole-4-carboxamide]	< 10	< 10	< 10

— patent US9187465B2, “Oxazole tyrosine kinase inhibitors” (Sareum Limited, priority 2007, dated 2015)
